Numbers after ± are expanded uncertainties.
Key:
[1] = 298.15 K; 101 kPa; Liquid
[2] = wn = mass fraction of the nth substance listed; conditions: 298.15 K, 101 kPa, Liquid

COC(C)=O [methyl ethanoate]
viscosity [1]: 0.4 ± 0.1 mPa·s

CCOC=O [ethyl methanoate]
viscosity [1]: 0.4 ± 0.1 mPa·s

CCCCn1cc[n+](C)c1.F[B-](F)(F)F [1-butyl-3-methylimidazolium tetrafluoroborate] + COC(C)=O
mass density ([2]; w1 = 1): 1211.05 ± 8.6 kg/m3 | viscosity ([2]; w1 = 1): 110.3 ± 6.6 mPa·s

CCOC=O [ethyl methanoate] + CCCCn1cc[n+](C)c1.F[B-](F)(F)F
mass density ([2]; w2 = 0): 928.48 ± 0.52 kg/m3 | viscosity ([2]; w2 = 0): 0.4 ± 0.1 mPa·s | mass density ([2]; w2 = 0.1384): 961.2 ± 0.72 kg/m3 | viscosity ([2]; w2 = 0.1384): 0.6 ± 0.1 mPa·s | mass density ([2]; w2 = 0.254): 989.2 ± 1 kg/m3 | viscosity ([2]; w2 = 0.254): 1 ± 0.1 mPa·s | mass density ([2]; w2 = 0.4306): 1040.81 ± 1.9 kg/m3 | viscosity ([2]; w2 = 0.4306): 2 ± 0.1 mPa·s | mass density ([2]; w2 = 0.5721): 1082.16 ± 3 kg/m3 | viscosity ([2]; w2 = 0.5721): 3.8 ± 0.1 mPa·s | mass density ([2]; w2 = 0.6278): 1098.26 ± 3.5 kg/m3 | viscosity ([2]; w2 = 0.6278): 5.1 ± 0.2 mPa·s | mass density ([2]; w2 = 0.6729): 1111.27 ± 4 kg/m3 | viscosity ([2]; w2 = 0.6729): 6.5 ± 0.2 mPa·s | mass density ([2]; w2 = 0.7159): 1123.69 ± 4.4 kg/m3 | viscosity ([2]; w2 = 0.7159): 8.5 ± 0.2 mPa·s | mass density ([2]; w2 = 0.751): 1133.73 ± 4.8 kg/m3 | viscosity ([2]; w2 = 0.751): 10.6 ± 0.3 mPa·s | mass density ([2]; w2 = 0.7847): 1143.34 ± 5.2 kg/m3 | viscosity ([2]; w2 = 0.7847): 13.3 ± 0.4 mPa·s | mass density ([2]; w2 = 0.8199): 1153.32 ± 5.7 kg/m3 | viscosity ([2]; w2 = 0.8199): 16.9 ± 0.5 mPa·s | mass density ([2]; w2 = 0.8756): 1169.16 ± 6.5 kg/m3 | viscosity ([2]; w2 = 0.8756): 26.6 ± 0.7 mPa·s | mass density ([2]; w2 = 0.9231): 1183.78 ± 7.2 kg/m3 | viscosity ([2]; w2 = 0.9231): 43.7 ± 1.3 mPa·s | mass density ([2]; w2 = 0.9647): 1198.3 ± 7.9 kg/m3 | viscosity ([2]; w2 = 0.9647): 69 ± 2.3 mPa·s

COC(C)=O [methyl ethanoate] + CCCCn1cc[n+](C)c1.F[B-](F)(F)F
mass density ([2]; w2 = 0): 915.97 ± 0.55 kg/m3 | viscosity ([2]; w2 = 0): 0.4 ± 0.1 mPa·s | mass density ([2]; w2 = 0.1386): 964.5 ± 0.72 kg/m3 | viscosity ([2]; w2 = 0.1386): 0.6 ± 0.1 mPa·s | mass density ([2]; w2 = 0.254): 996.04 ± 1 kg/m3 | viscosity ([2]; w2 = 0.254): 0.9 ± 0.1 mPa·s | mass density ([2]; w2 = 0.4326): 1045.98 ± 2 kg/m3 | viscosity ([2]; w2 = 0.4326): 2 ± 0.1 mPa·s | mass density ([2]; w2 = 0.5703): 1084.58 ± 3 kg/m3 | viscosity ([2]; w2 = 0.5703): 3.6 ± 0.1 mPa·s | mass density ([2]; w2 = 0.622): 1098.9 ± 3.5 kg/m3 | viscosity ([2]; w2 = 0.622): 4.7 ± 0.1 mPa·s | mass density ([2]; w2 = 0.6699): 1112.24 ± 4 kg/m3 | viscosity ([2]; w2 = 0.6699): 6.2 ± 0.2 mPa·s | mass density ([2]; w2 = 0.7149): 1124.8 ± 4.4 kg/m3 | viscosity ([2]; w2 = 0.7149): 8.2 ± 0.2 mPa·s | mass density ([2]; w2 = 0.7526): 1136.01 ± 4.9 kg/m3 | viscosity ([2]; w2 = 0.7526): 10.2 ± 0.3 mPa·s | mass density ([2]; w2 = 0.7875): 1144.94 ± 5.3 kg/m3 | viscosity ([2]; w2 = 0.7875): 13.1 ± 0.4 mPa·s | mass density ([2]; w2 = 0.8204): 1153.95 ± 5.7 kg/m3 | viscosity ([2]; w2 = 0.8204): 16.3 ± 0.5 mPa·s | mass density ([2]; w2 = 0.8766): 1169.55 ± 6.5 kg/m3 | viscosity ([2]; w2 = 0.8766): 25.8 ± 0.7 mPa·s | mass density ([2]; w2 = 0.9243): 1182.88 ± 7.2 kg/m3 | viscosity ([2]; w2 = 0.9243): 40.8 ± 1.2 mPa·s | mass density ([2]; w2 = 0.9648): 1197.7 ± 7.9 kg/m3 | viscosity ([2]; w2 = 0.9648): 63.7 ± 1.9 mPa·s

CC(C)=O [acetone]
mass density [1]: 785.36 ± 0.81 kg/m3 | viscosity [1]: 0.3 ± 0.1 mPa·s

COC=O [methyl methanoate] + CCCCn1cc[n+](C)c1.F[B-](F)(F)F
mass density ([2]; w2 = 0): 964.78 ± 0.45 kg/m3 | viscosity ([2]; w2 = 0): 0.3 ± 0.1 mPa·s | mass density ([2]; w2 = 0.1653): 1011.72 ± 0.78 kg/m3 | viscosity ([2]; w2 = 0.1653): 0.5 ± 0.1 mPa·s | mass density ([2]; w2 = 0.2974): 1045.55 ± 1.4 kg/m3 | viscosity ([2]; w2 = 0.2974): 0.9 ± 0.1 mPa·s | mass density ([2]; w2 = 0.4895): 1091.4 ± 2.5 kg/m3 | viscosity ([2]; w2 = 0.4895): 1.9 ± 0.1 mPa·s | mass density ([2]; w2 = 0.6165): 1121.47 ± 3.6 kg/m3 | viscosity ([2]; w2 = 0.6165): 3.5 ± 0.1 mPa·s | mass density ([2]; w2 = 0.6592): 1131.2 ± 4 kg/m3 | viscosity ([2]; w2 = 0.6592): 4.4 ± 0.1 mPa·s | mass density ([2]; w2 = 0.7145): 1143.64 ± 4.6 kg/m3 | viscosity ([2]; w2 = 0.7145): 6.3 ± 0.2 mPa·s | mass density ([2]; w2 = 0.7547): 1152.73 ± 5.1 kg/m3 | viscosity ([2]; w2 = 0.7547): 8.2 ± 0.2 mPa·s | mass density ([2]; w2 = 0.7899): 1160.43 ± 5.5 kg/m3 | viscosity ([2]; w2 = 0.7899): 10.6 ± 0.3 mPa·s | mass density ([2]; w2 = 0.8204): 1167.19 ± 5.9 kg/m3 | viscosity ([2]; w2 = 0.8204): 13.7 ± 0.4 mPa·s | mass density ([2]; w2 = 0.8492): 1173.37 ± 6.2 kg/m3 | viscosity ([2]; w2 = 0.8492): 17.12 ± 0.48 mPa·s | mass density ([2]; w2 = 0.8977): 1182.34 ± 6.9 kg/m3 | viscosity ([2]; w2 = 0.8977): 28.3 ± 0.8 mPa·s | mass density ([2]; w2 = 0.9376): 1192.78 ± 7.5 kg/m3 | viscosity ([2]; w2 = 0.9376): 44.2 ± 1.3 mPa·s | mass density ([2]; w2 = 0.9711): 1202.31 ± 8 kg/m3 | viscosity ([2]; w2 = 0.9711): 68.4 ± 2.2 mPa·s

CCCCn1cc[n+](C)c1.F[B-](F)(F)F [1-butyl-3-methylimidazolium tetrafluoroborate] + COC=O
mass density ([2]; w1 = 1): 1211.05 ± 8.6 kg/m3 | viscosity ([2]; w1 = 1): 110.3 ± 6.6 mPa·s

CC(C)=O [acetone] + CCCCn1cc[n+](C)c1.F[B-](F)(F)F
mass density ([2]; w2 = 0): 785.36 ± 0.81 kg/m3 | viscosity ([2]; w2 = 0): 0.3 ± 0.1 mPa·s

CCCCn1cc[n+](C)c1.F[B-](F)(F)F [1-butyl-3-methylimidazolium tetrafluoroborate] + CCOC=O
mass density ([2]; w1 = 1): 1211.05 ± 8.6 kg/m3 | viscosity ([2]; w1 = 1): 110.3 ± 6.6 mPa·s

CCCCn1cc[n+](C)c1.F[B-](F)(F)F [1-butyl-3-methylimidazolium tetrafluoroborate] + CC(C)=O
mass density ([2]; w1 = 0.1724): 846.15 ± 0.96 kg/m3 | viscosity ([2]; w1 = 0.1724): 0.5 ± 0.1 mPa·s | mass density ([2]; w1 = 0.3033): 894.39 ± 1.2 kg/m3 | viscosity ([2]; w1 = 0.3033): 0.7 ± 0.1 mPa·s | mass density ([2]; w1 = 0.495): 970.29 ± 2 kg/m3 | viscosity ([2]; w1 = 0.495): 1.5 ± 0.1 mPa·s | mass density ([2]; w1 = 0.6276): 1026.98 ± 3 kg/m3 | viscosity ([2]; w1 = 0.6276): 3 ± 0.1 mPa·s | mass density ([2]; w1 = 0.677): 1048.91 ± 3.5 kg/m3 | viscosity ([2]; w1 = 0.677): 4 ± 0.1 mPa·s | mass density ([2]; w1 = 0.7197): 1068.29 ± 4 kg/m3 | viscosity ([2]; w1 = 0.7197): 5.2 ± 0.2 mPa·s | mass density ([2]; w1 = 0.7603): 1086.16 ± 4.4 kg/m3 | viscosity ([2]; w1 = 0.7603): 6.9 ± 0.2 mPa·s | mass density ([2]; w1 = 0.7933): 1102.46 ± 4.9 kg/m3 | viscosity ([2]; w1 = 0.7933): 9 ± 0.3 mPa·s | mass density ([2]; w1 = 0.8267): 1118.43 ± 5.4 kg/m3 | viscosity ([2]; w1 = 0.8267): 12 ± 0.3 mPa·s | mass density ([2]; w1 = 0.8536): 1131.38 ± 5.8 kg/m3 | viscosity ([2]; w1 = 0.8536): 15.1 ± 0.4 mPa·s | mass density ([2]; w1 = 0.9024): 1155.29 ± 6.6 kg/m3 | viscosity ([2]; w1 = 0.9024): 25.5 ± 0.7 mPa·s | mass density ([2]; w1 = 0.939): 1174.32 ± 7.2 kg/m3 | viscosity ([2]; w1 = 0.939): 40.1 ± 1.2 mPa·s | mass density ([2]; w1 = 0.9707): 1193.01 ± 7.9 kg/m3 | viscosity ([2]; w1 = 0.9707): 64.7 ± 2 mPa·s | mass density ([2]; w1 = 1): 1211.05 ± 8.6 kg/m3 | viscosity ([2]; w1 = 1): 110.3 ± 6.6 mPa·s

CCCCn1cc[n+](C)c1.F[B-](F)(F)F [1-butyl-3-methylimidazolium tetrafluoroborate]
mass density [1]: 1211.05 ± 8.6 kg/m3 | viscosity [1]: 110.3 ± 6.6 mPa·s

COC=O [methyl methanoate]
mass density [1]: 964.78 ± 0.45 kg/m3 | viscosity [1]: 0.3 ± 0.1 mPa·s
